In paper PMC10135033, “Sulfonamidoboronic Acids as “Cross-Class” Inhibitors of an Expanded-Spectrum Class C Cephalosporinase, ADC-33, and a Class D Carbapenemase, OXA-24/40: Strategic Compound Design to Combat Resistance in Acinetobacter baumannii” (Antibiotics, 2023):
Read-outs that look alike come from different tables or passages of the source.

How the values were obtained:
Type in all cases: cell-based
[1] = test system: E. coli DH10B, ADC-33 in pBCSK-; assay: Antimicrobial susceptibility testing, broth microdilution; conditions: Escherichia coli
Description: (§1) Based upon the inhibitor kinetics (Ki determinations), CR167 and the sulfonamidoboronic acid 6b were tested against E. coli strains expressing ADC-7 and ADC-33 cloned into pBCSK- (DH10B) (Table 3).
(§2) blaADC-7 pBCSK- and blaADC-33 pBCSK- were cloned and expressed in E. coli DH10B cells as previously described.
(§3) Testing of susceptibility to standard antibiotics was performed with broth microdilution according to CLSI guidelines. MICs for CAZ, CTX, FEP, and IMI were determined using cation-adjusted Mueller–Hinton broth according to CLSI methods, and CR167 or 6b was used at a fixed concentration of 10 mg/L. All MICs were interpreted according to the 2022 Clinical and Laboratory Standards Institute (CLSI) guidelines.

[2] = test system: E. coli DH10B, ADC-7 in pBCSK-; assay: as above; conditions: Escherichia coli
Description: as §1, §2, §3

[3] = test system: A. baumannii ATCC 17978 native ADC KO, ADC-33 pQF1266; assay: as above; conditions: Acinetobacter baumannii
Description: (§4) The inhibitory effects of both compounds were tested against ADC-33 and OXA-24/-40 in A. baumannii, their native host. ATCC 17978, with its intrinsic chromosomal ADC knocked out (intrinsic OXA still present), was used in these experiments. In this isolate, the ADC MICs were not lowered by the inhibitors as much as they were against the E. coli background (Table 4).
Plasmid pBCSK- containing the blaADC-33 gene was digested with PvuII, which released the blaADC-33 gene, along with the lac promoter, which drives expression. This PvuII fragment was cloned into the SmaI site of the pQF1266 plasmid.
(§5) pWH1266 is a vector that replicates in A. baumannii, and the […] pWH1266 construct was generated as follows. The TEM gene was removed using inverse PCR, and an Xba1 site was engineered into the vector. blaOXA-24/40 and its upstream XerC/XerD were amplified from strain NM55. The amplified gene was cloned into the Xba1 site of the altered pWH1266 vector. The construct was confirmed using PCR and sequencing. Both blaADC-33 pQF1266 and […] pWH1266 were then expressed in A. baumannii ATCC 17978 that had the intrinsic chromosomal ADC gene knocked out.
(§6) The chromosomal blaADC-51 gene in ATCC 17978 was deleted and replaced with an apramycin resistance cassette using the recombineering method described by Tucker et al.. Primers used for this deletion were: Del AmpC-apra.For: […]; and Del AmpC-apra.Rev: […]. The correct deletion mutant was confirmed using PCR and sequencing.
as §3

[4] = test system: clinical A. baumannii isolate PR474 (OXA-23, OXA-24, OXA-65, ADC-218); assay: Antimicrobial susceptibility testing, clinical isolate, broth microdilution; conditions: Acinetobacter baumannii
Description: (§7) Clinical A. baumannii isolates containing ADC-33 or OXA-24/-40 in combination with various other well-defined β-lactamases were also tested against CR167 and 6b (Table 5).
(§8) The clinical A. baumannii isolates used to test the β-lactamase inhibitors were selected from a previously well-characterized collection in our lab. They were chosen as they had either ADC-33 and/or OXA-24 in combination with other known β-lactamases (for specific combinations, see Table 5).
as §3

[5] = test system: clinical A. baumannii isolate PR462 (OXA-24, OXA-65, ADC-214); assay: as above; conditions: Acinetobacter baumannii, inhibitor at 10 mg/L
Description: as §7, §8, §3

[6] = test system: clinical A. baumannii isolate PR328 (OXA-23, OXA-82, ADC-33); assay: as above; conditions: Acinetobacter baumannii
Description: as §7, §8, §3

[7] = test system: clinical A. baumannii isolate PR378 (OXA-24, OXA-65, TEM-1); assay: as above; conditions: Acinetobacter baumannii
Description: as §7, §8, §3

[8] = test system: clinical A. baumannii isolate PR323 (OXA-24, OXA-65, ADC-218); assay: as above; conditions: Acinetobacter baumannii
Description: as §7, §8, §3

[9] = test system: clinical A. baumannii isolate PR408 (OXA-24, OXA-71, ADC-212); assay: as above; conditions: Acinetobacter baumannii
Description: as §7, §8, §3

[10] = test system: clinical A. baumannii isolate PR396 (OXA-82, ADC-33); assay: as above; conditions: Acinetobacter baumannii, inhibitor at 10 mg/L
Description: as §7, §8, §3

[11] = test system: A. baumannii ATCC 17978 native ADC KO, OXA-24 pWH1266; assay: Antimicrobial susceptibility testing, broth microdilution; conditions: Acinetobacter baumannii
Description: as §4, §5, §6, §3

[12] = ATCC17978, read-out: MIC of CAZ with BLI
[13] = ATCC17978, read-out: MIC of CTX with BLI
[14] = ATCC17978, read-out: MIC of FEP with BLI
[15] = inhibitor at 10 mg/L, PR474, read-out: MIC of CAZ with BLI
[16] = inhibitor at 10 mg/L, PR474, read-out: MIC of CTX with BLI
[17] = inhibitor at 10 mg/L, PR328, read-out: MIC of CAZ with BLI
[18] = inhibitor at 10 mg/L, PR378, read-out: MIC of CAZ with BLI
[19] = inhibitor at 10 mg/L, PR378, read-out: MIC of CTX with BLI
[20] = inhibitor at 10 mg/L, PR323, read-out: MIC of CAZ with BLI
[21] = inhibitor at 10 mg/L, PR323, read-out: MIC of CTX with BLI
[22] = inhibitor at 10 mg/L, PR408, read-out: MIC of CAZ with BLI
[23] = inhibitor at 10 mg/L, PR408, read-out: MIC of CTX with BLI
[24] = ATCC17978, read-out: MIC of IMI with BLI

C[C@@H](NS(=O)(=O)Cc1cccc(C(=O)O)c1)B(O)O [6b]
MIC ([1]; read-out: MIC of CAZ with BLI): 64 µg/mL | MIC ([1]; read-out: MIC of CTX with BLI): 4 µg/mL | MIC ([2]; read-out: MIC of CAZ with BLI): 4 µg/mL | MIC ([2]; read-out: MIC of CTX with BLI): 2 µg/mL | MIC ([2]; read-out: MIC of FEP with BLI): 0.12 µg/mL | MIC [3, 12]: 64 µg/mL | MIC [3, 13]: 32 µg/mL | MIC [3, 14]: 4 µg/mL | MIC ([4]; read-out: MIC of IMI with BLI): 128 µg/mL | MIC [4, 15]: 4100 µg/mL | MIC [4, 16]: 2050 µg/mL | MIC ([5]; read-out: MIC of CAZ with BLI): 256 µg/mL | MIC ([5]; read-out: MIC of CTX with BLI): 512 µg/mL | MIC ([5]; read-out: MIC of IMI with BLI): 64 µg/mL | MIC ([6]; read-out: MIC of IMI with BLI): 128 µg/mL | MIC [6, 17]: 2050 µg/mL | MIC ([6]; inhibitor at 10 mg/L, PR328, read-out: MIC of CTX with BLI): 256 µg/mL | MIC [7, 18]: 32 µg/mL | MIC [7, 19]: 64 µg/mL | MIC ([7]; inhibitor at 10 mg/L, PR378, read-out: MIC of IMI with BLI): 256 µg/mL | MIC ([8]; read-out: MIC of IMI with BLI): 128 µg/mL | MIC [8, 20]: 4100 µg/mL | MIC [8, 21]: 2050 µg/mL | MIC ([9]; read-out: MIC of IMI with BLI): 128 µg/mL | MIC [9, 22]: 512 µg/mL | MIC [9, 23]: 1020 µg/mL | MIC ([10]; read-out: MIC of CAZ with BLI): 2050 µg/mL | MIC ([10]; read-out: MIC of CTX with BLI): 512 µg/mL | MIC ([10]; read-out: MIC of IMI with BLI): 64 µg/mL | MIC [11, 12]: 8 µg/mL | MIC [11, 13]: 16 µg/mL | MIC [11, 14]: 32 µg/mL | MIC [11, 24]: 128 µg/mL

O=C(O)c1cccc(CS(=O)(=O)NCB(O)O)c1 [CR167]
MIC ([1]; read-out: MIC of CAZ with BLI): 64 µg/mL | MIC ([1]; read-out: MIC of CTX with BLI): 2 µg/mL | MIC ([2]; read-out: MIC of CAZ with BLI): 4 µg/mL | MIC ([2]; read-out: MIC of CTX with BLI): 2 µg/mL | MIC ([2]; read-out: MIC of FEP with BLI): 0.12 µg/mL | MIC [3, 12]: 32 µg/mL | MIC [3, 13]: 16 µg/mL | MIC [3, 14]: 4 µg/mL | MIC ([4]; read-out: MIC of IMI with BLI): 128 µg/mL | MIC [4, 15]: 4100 µg/mL | MIC [4, 16]: 2050 µg/mL | MIC ([5]; read-out: MIC of CAZ with BLI): 64 µg/mL | MIC ([5]; read-out: MIC of CTX with BLI): 256 µg/mL | MIC ([5]; read-out: MIC of IMI with BLI): 64 µg/mL | MIC ([6]; read-out: MIC of CTX with BLI): 128 µg/mL | MIC ([6]; read-out: MIC of IMI with BLI): 128 µg/mL | MIC [6, 17]: 1020 µg/mL | MIC ([7]; read-out: MIC of IMI with BLI): 128 µg/mL | MIC [7, 18]: 32 µg/mL | MIC [7, 19]: 64 µg/mL | MIC ([8]; read-out: MIC of IMI with BLI): 128 µg/mL | MIC [8, 20]: 4100 µg/mL | MIC [8, 21]: 2050 µg/mL | MIC ([9]; read-out: MIC of IMI with BLI): 128 µg/mL | MIC [9, 22]: 512 µg/mL | MIC [9, 23]: 1020 µg/mL | MIC ([10]; read-out: MIC of CAZ with BLI): 1020 µg/mL | MIC ([10]; read-out: MIC of CTX with BLI): 256 µg/mL | MIC ([10]; read-out: MIC of IMI with BLI): 64 µg/mL | MIC [11, 12]: 8 µg/mL | MIC [11, 13]: 16 µg/mL | MIC [11, 14]: 32 µg/mL | MIC [11, 24]: 128 µg/mL
